Data reported in ChEMBL document CHEMBL1151631, “Plant anticancer agents, XXXIV. Cucurbitacins from Elaeocarpus dolichostylus” (1984).
Converted amounts (≈) assume the structure as drawn. The source made the active and inactive calls. The rule behind the calls is not given here.

Tests used:
L1210 = assay: In vivo cytotoxicity against mouse L1210 cells at 300 to 400 mg/kg relative to control; format: functional, organism-based
KB = assay: Cytotoxicity against human KB cells; format: functional; settings: read-out: ED50 (the source's name)
P388 = assay: Cytotoxicity against mouse P388 cells; format: functional; settings: read-out: ED50 (the source's name)

| Structure (SMILES) | Activity (L1210) | EC50 (KB) [µg/mL] | EC50 (P388) [µg/mL] |
| --- | --- | --- | --- |
| Cc1cccc2c1C(=O)C1[C@H]3CCCN3CC[C@H]1O2 (some centres undefined) | inactive |  |  |
| CC(=O)[C@H]1[C@H](O)C[C@@]2(C)[C@@H]3CC=C4[C@@H](C[C@H](O)[C@@H](O)C4(C)C)[C@]3(C)C(=O)C[C@]12C [HEXANORCUCURBITACIN F] |  | > 50 | > 50 |
| C[C@@H]1CC=CC2=C1C(=O)[C@H]1[C@H](CCN3CCC[C@H]13)O2 | inactive |  |  |
| Cc1cccc2c1C(=O)[C@H]1[C@H](CCN3CCC[C@H]13)O2 | inactive |  |  |
| CC(C)(O)/C=C/C(=O)[C@](C)(O)[C@H]1[C@H](O)C[C@@]2(C)[C@@H]3CC=C4[C@@H](C[C@H](O)[C@@H](O)C4(C)C)[C@]3(C)C(=O)C[C@]12C [CUCURBITACIN F] |  | 0.074 (≈ 0.143 µM) | 0.04 (≈ 0.0771 µM) |
| CC(C)(O)CCC(=O)[C@](C)(O)[C@H]1[C@H](O)C[C@@]2(C)[C@@H]3CC=C4[C@@H](C[C@H](O)[C@@H](O)C4(C)C)[C@]3(C)C(=O)C[C@]12C |  | > 50 | > 50 |
